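Dose response: 5 concentrations. Exposure: 48 h. Format: 96-well plates. Endpoint: linear interpolation; highest concentration if not reached. GI50 marks 50% less growth.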 Activity calls are given as the source filed them. Cut-off read from the data, not from the text of the source: active = GI50 up to about 1.1 µM and inactive = higher.
Tests used:
Assay in all cases: DTP human tumour cell line panel, 48 h
COLO 205 = system: COLO 205
MDA-MB-435 = system: MDA-MB-435
HOP-62 = system: HOP-62
Hs-578T = system: Hs-578T
HCC 2998 = system: HCC 2998
A498 = system: A498
SF-539 = system: SF-539
786-0 = system: 786-0
OVCAR-4 = system: OVCAR-4
MDA-N = system: MDA-N
SK-OV-3 = system: SK-OV-3
OVCAR-5 = system: OVCAR-5
SK-MEL-5 = system: SK-MEL-5
SK-MEL-2 = system: SK-MEL-2
MOLT-4 = system: MOLT-4
MCF7 = system: MCF7
OVCAR-8 = system: OVCAR-8
LOX IMVI = system: LOX IMVI
T47D = system: T47D
HL-60 = system: HL-60

Measured: GI50

CCC1=CC(OCc2ccccc2)C(CCN(Cc2ccccc2)C(=O)OCc2ccccc2)C1 (centres undefined)
inactive: COLO 205 20.8 µM | MDA-MB-435 17.1 µM | HOP-62 16.5 µM | Hs-578T 11.5 µM | HCC 2998 16.5 µM | A498 16 µM | SF-539 20.6 µM | 786-0 19.3 µM | OVCAR-4 13.7 µM | MDA-N 30.4 µM | SK-OV-3 20 µM | OVCAR-5 13.5 µM | SK-MEL-5 15.4 µM | SK-MEL-2 20.2 µM | MOLT-4 10.2 µM | MCF7 16.1 µM | OVCAR-8 17.5 µM | LOX IMVI 14.9 µM | T47D 6.01 µM

O=C(Cn1nnc(-c2ccccc2)n1)N/N=C/c1cn(Cc2ccc(Cl)cc2Cl)c2ccccc12
inactive: COLO 205 > 100 µM | MDA-MB-435 > 100 µM | HOP-62 > 100 µM | Hs-578T > 100 µM | A498 75.5 µM | SF-539 > 100 µM | 786-0 36.9 µM | OVCAR-4 > 100 µM | HL-60 39.6 µM | MDA-N > 100 µM | SK-OV-3 > 100 µM | OVCAR-5 > 100 µM | SK-MEL-5 > 100 µM | SK-MEL-2 > 100 µM | MOLT-4 > 100 µM | MCF7 > 100 µM | OVCAR-8 > 100 µM | LOX IMVI > 100 µM | T47D 47.2 µM

N#Cc1nc(C#N)c(NC(=O)c2ccccc2C(=O)O)[nH]1
inactive: COLO 205 > 100 µM | MDA-MB-435 > 100 µM | HOP-62 > 100 µM | Hs-578T > 100 µM | A498 > 100 µM | SF-539 > 100 µM | 786-0 > 100 µM | HL-60 > 100 µM | MDA-N > 100 µM | SK-OV-3 > 100 µM | OVCAR-5 > 100 µM | SK-MEL-5 > 100 µM | SK-MEL-2 > 100 µM | MOLT-4 > 100 µM | MCF7 > 100 µM | OVCAR-8 > 100 µM | LOX IMVI > 100 µM | T47D > 100 µM

CC(CN(C)C)C(=O)c1ccccc1C(=O)O (centres undefined)
inactive: COLO 205 25.4 µM | MDA-MB-435 20.1 µM | HOP-62 20.6 µM | Hs-578T 11.1 µM | A498 40.8 µM | 786-0 24.2 µM | OVCAR-4 35.5 µM | HL-60 22.7 µM | MDA-N 29.5 µM | SK-OV-3 39.4 µM | OVCAR-5 52.4 µM | SK-MEL-5 28.5 µM | SK-MEL-2 15.7 µM | MOLT-4 20.4 µM | MCF7 35.6 µM | OVCAR-8 30.3 µM | LOX IMVI 33.4 µM | T47D 37.1 µM
